According to PubChem BioAssay AID686941 (The Scripps Research Institute Molecular Screening Center, 2013):

What was measured:
[1] = biological target: Cytochrome P450 3A4 (Homo sapiens) (UniProt P08684); assay: recombinant CYP3A isoform inhibitors – biochemical, LC-MS/MS, purified recombinant enzymes, counter-screen, late-stage follow-up (AID 686941); settings: recombinant CYP3A4/CYP3A5, LC-MS/MS metabolite formation; CYP3A4
[2] = biological target: Cytochrome P450 3A5 (Homo sapiens) (UniProt P20815); assay: as above; settings: recombinant CYP3A4/CYP3A5, LC-MS/MS metabolite formation, CYP3A5
Cytochrome P450 3A5 (Homo sapiens), sequence (P20815 whole entry, looked up): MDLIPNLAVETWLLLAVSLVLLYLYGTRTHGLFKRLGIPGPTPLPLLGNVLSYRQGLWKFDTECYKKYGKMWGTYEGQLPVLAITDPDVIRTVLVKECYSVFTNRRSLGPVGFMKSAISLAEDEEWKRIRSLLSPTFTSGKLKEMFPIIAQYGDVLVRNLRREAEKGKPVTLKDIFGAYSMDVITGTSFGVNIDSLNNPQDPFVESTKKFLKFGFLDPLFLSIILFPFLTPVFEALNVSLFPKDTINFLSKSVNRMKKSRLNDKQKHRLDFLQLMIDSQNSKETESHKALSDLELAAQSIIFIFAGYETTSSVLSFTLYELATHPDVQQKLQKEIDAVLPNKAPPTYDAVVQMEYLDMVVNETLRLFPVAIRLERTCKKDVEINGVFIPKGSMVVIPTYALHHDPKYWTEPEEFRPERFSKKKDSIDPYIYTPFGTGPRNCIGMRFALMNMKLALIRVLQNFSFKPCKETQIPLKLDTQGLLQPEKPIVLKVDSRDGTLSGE

Cytochrome P450 3A4 (Homo sapiens), sequence (P08684 whole entry, looked up, canonical isoform): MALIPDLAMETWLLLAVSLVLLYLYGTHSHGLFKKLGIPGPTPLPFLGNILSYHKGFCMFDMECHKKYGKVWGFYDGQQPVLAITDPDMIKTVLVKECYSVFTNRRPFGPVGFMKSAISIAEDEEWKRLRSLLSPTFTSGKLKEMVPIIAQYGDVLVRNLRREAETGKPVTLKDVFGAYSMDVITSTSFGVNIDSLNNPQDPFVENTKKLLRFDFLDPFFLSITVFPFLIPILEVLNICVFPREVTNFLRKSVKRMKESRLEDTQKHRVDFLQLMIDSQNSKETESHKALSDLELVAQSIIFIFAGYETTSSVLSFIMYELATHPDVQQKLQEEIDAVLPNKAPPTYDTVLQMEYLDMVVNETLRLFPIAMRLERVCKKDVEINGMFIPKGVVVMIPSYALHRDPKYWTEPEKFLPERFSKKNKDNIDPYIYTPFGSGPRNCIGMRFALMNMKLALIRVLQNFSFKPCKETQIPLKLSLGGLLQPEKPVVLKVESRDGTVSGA

| IC50 [1] [nM] | inhibition ([2]; at 60 µM, stronger effect = higher value) [%] | IC50 [2] [nM] | Compound |
| --- | --- | --- | --- |
| > 200 | 26 | – | NC(=O)c1ccc(-c2ccc(NC(=O)Nc3ccc(-c4ccnc5nc[nH]c45)cc3)cc2)cc1 |
| 1700 | – | 13000 | O=C(Nc1ccc(-c2ccc3ccccc3c2)cc1)Nc1ccc(-c2ccnc3nc[nH]c23)cc1 |
